Strand notation (5' to 3'): a small letter for the sugar, then the base; units joined by * are phosphorothioate-linked, units joined directly phosphodiester-linked; [ ] holds rarer units or linkages, { } end groups; capitals alone tell only the bases. k = constrained ethyl (cEt); [5mC] = 5-methylcytosine; d = 2'-deoxy (DNA)
The substances below were run on human SMAD7 mRNA (assay: Antisense inhibition of human SMAD7 mRNA expression in Hep3B cells by 3-10-3 cEt gapmers, 10,000 nM, electroporation (Example 2)). Conditions: Hep3B cells, electroporation with 10,000 nM antisense oligonucleotide, approximately 24 hours, primer probe set RTS5062, relative to untreated control cells.
Assay type: cell-based
Procedure, shortened: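 qRT-PCR (RTS5062) of SMAD7 mRNA, normalised to RIBOGREEN total RNA, gave percent inhibition relative to untreated controls. Hep3B cells at 20,000 per well received 10,000 nM oligonucleotide by electroporation, with ~24 h treatment.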

Substance	% Inhibition	% inhibition of SMAD7 mRNA expression
799153 (antisense kG*kT*kT*dA*dG*dG*dT*dG*dT*d[5mC]*dA*dG*d[5mC]*k[5mC]*kT*kA) [compound 799153]	68%	
799154 (antisense kA*kG*kA*dG*dT*dT*dA*dG*dG*dT*dG*dT*d[5mC]*kA*kG*k[5mC]) [compound 799154]	39%	
799155 (antisense kA*kG*kA*dA*dG*dA*dG*dT*dT*dA*dG*dG*dT*kG*kT*k[5mC]) [compound 799155]	32%	
799156 (antisense kG*kA*kA*dA*dG*dA*dA*dG*dA*dG*dT*dT*dA*kG*kG*kT) [compound 799156]	37%	
799157 (antisense kG*kT*kT*dG*dT*dA*dG*dA*dA*dG*dA*dA*dA*kT*kG*kA) [compound 799157]	39%	
799158 (antisense kT*kA*kT*dG*dA*dG*dT*dT*dG*dT*dA*dG*dA*kA*kG*kA) [compound 799158]	33%	
799160 (antisense kA*k[5mC]*kG*dA*dG*dT*dG*dT*dA*dT*dG*dA*dG*kT*kT*kG) [compound 799160]	61%	
799161 (antisense k[5mC]*kA*kT*dA*d[5mC]*dG*dA*dG*dT*dG*dT*dA*dT*kG*kA*kG) [compound 799161]	29%	
799162 (antisense kT*kA*kT*d[5mC]*dA*dT*dA*d[5mC]*dG*dA*dG*dT*dG*kT*kA*kT) [compound 799162]	36%	
799163 (antisense kA*kA*kG*dT*dA*dT*d[5mC]*dA*dT*dA*d[5mC]*dG*dA*kG*kT*kG) [compound 799163]		45%
799164 (antisense kT*k[5mC]*kG*dA*dA*dG*dT*dA*dT*d[5mC]*dA*dT*dA*k[5mC]*kG*kA) [compound 799164]		37%
799165 (antisense kG*kT*kG*dT*d[5mC]*dG*dA*dA*dG*dT*dA*dT*d[5mC]*kA*kT*kA) [compound 799165]		42%
799166 (antisense kA*kA*k[5mC]*dA*dG*dT*dG*dT*d[5mC]*dG*dA*dA*dG*kT*kA*kT) [compound 799166]		21%
799167 (antisense kA*kA*kG*dA*dA*d[5mC]*dA*dG*dT*dG*dT*d[5mC]*dG*kA*kA*kG) [compound 799167]		58%
799169 (antisense kT*kT*kG*dA*dG*d[5mC]*dT*dA*dA*dG*dA*dA*d[5mC]*kA*kG*kT) [compound 799169]		0%
799170 (antisense kT*k[5mC]*kA*dT*dT*dG*dA*dG*d[5mC]*dT*dA*dA*dG*kA*kA*k[5mC]) [compound 799170]		17%
799171 (antisense kT*kG*k[5mC]*dT*d[5mC]*dA*dT*dT*dG*dA*dG*d[5mC]*dT*kA*kA*kG) [compound 799171]		30%
799172 (antisense kA*kA*k[5mC]*dA*dT*dG*d[5mC]*dT*d[5mC]*dA*dT*dT*dG*kA*kG*k[5mC]) [compound 799172]		4%
799173 (antisense k[5mC]*kT*kA*dA*dA*d[5mC]*dA*dT*dG*d[5mC]*dT*d[5mC]*dA*kT*kT*kG) [compound 799173]	18%	
799174 (antisense kA*kG*kT*d[5mC]*dT*dA*dA*dA*d[5mC]*dA*dT*dG*d[5mC]*kT*k[5mC]*kA) [compound 799174]	42%	
799175 (antisense kT*kA*kA*dA*dG*dT*d[5mC]*dT*dA*dA*dA*d[5mC]*dA*kT*kG*k[5mC]) [compound 799175]	0%	
799176 (antisense kT*kG*kT*dT*dA*dA*dA*dG*dT*d[5mC]*dT*dA*dA*kA*k[5mC]*kA) [compound 799176]	0%	
799177 (antisense kT*kT*kA*dT*dG*dT*dT*dA*dA*dA*dG*dT*d[5mC]*kT*kA*kA) [compound 799177]	0%	
